Measurements: EP0486921A1, “N-acetyl-L-cysteine magnesium salt and pharmaceutical compositions containing it” (ZAMBON GROUP S.p.A., priority 1990, dated 1992)
Counter-ions that a name gives are not always drawn.

Columns and labels:
pH of aqueous solution = format: physicochemical; conditions: 1 % aqueous solution
Excerpt: pH (1 % aqueous solution) = 5.35

anesthetized guinea pigs = conditions: guinea pig, in vivo
Experimental: The experiments were carried out according to the Konzett and Rössler technique [Arch. Exp. Patol. Pharmakol., 195, 71, (1940)] in anesthetized guinea pigs, where the potential increase in total airway resistance induced by the tested compounds was registered as a change in air overflow.
Male guinea pigs (500-600 g body weight) were anesthetized with ethylurethane (1.25 g/kg/i.p.) and the anesthesia was maintained by additional doses of ethylurethane given by intravenous route.
A catheter was inserted into the jugular vein for the administration of histamine.
The guinea pigs were subjected to forced ventilation at constant volume and at 72 breaths/minute.
Basal overflow value was set up to 8 cm H20.
Equimolecular doses of N-acetyl-L-cysteine in the form of free acid, lysine salt, calcium salt and magnesium salt [(NAC)2Mg] were administered as a micronized powder in trachea by forced insufflation.
The bronchoconstrictive effect was evaluated as the equivalent dose of histamine causing the same change in air overflow.
In control experiments the effect of forced insufflation of lactose was evaluated.

Solubility in water = format: physicochemical
Excerpt: solubility in water: about 50%

predisposed subjects = conditions: the patent says tested doses were much lower than therapeutically useful doses; cited from earlier work

SMILES | pH (pH of aqueous solution) | Histamine dose X-±S.E. (dose of hystamine causing a bronchospasm equivalent to the change in air overflow) (anesthetized guinea pigs) | bronchoconstrictive effect compared with N-acetyl-L-cysteine (anesthetized guinea pigs) | solubility (Solubility in water) [mg/mL] | induction of bronchospasm (predisposed subjects)
CC(=O)N[C@@H](CS)C(=O)O [(NAC)2Mg, N-acetyl-L-cysteine magnesium salt] | 5.35 | 3.96±0.28 ^(**) µg/kg/i.v. | significantly lower | ~500 | 
CC(=O)N[C@@H](CS)C(=O)O [NAC calcium salt] |  | 7.03±1.48 µg/kg/i.v. | not significantly different |  | 
CC(=O)N[C@@H](CS)C(=O)O [NAC lysine salt] |  | 4.53±0.40 µg/kg/i.v. |  |  | does not induce bronchospasm
CC(=O)N[C@@H](CS)C(=O)O [NAC, N-acetyl-L-cysteine] |  | 5.81±0.93 µg/kg/i.v. |  |  | 
